Columns and labels:
[1] = tested on: sunflower cotyledons; experiment: Assessment of selection agents (GUS assay of transformed cotyledons and shoots); assay type: cell-based, Helianthus annuus L.; conditions: glyphosate 0.05->0.1->0.05 mM, paromomycin 25->50->25 mg/L, kanamycin 50 mg/L; for GUS Positive/Total cotyledons assayed: destructive GUS assays at different stages
Method: After the post-transformation delay, the transformed cotyledons were transferred through a series of selection cultures containing low-high-low concentrations of selective agent. The cotyledons were first placed in Selection media (see Table 1) containing 0.05 mM glyphosate for about 10 days. Plates were incubated at 23° C., low light, and 18/6 hour photoperiod. The cotyledons were then transferred to a second selection culture containing Selection media +0.1 mM glyphosate for about 2 additional weeks. Finally, the cotyledons were placed in a third selection culture containing Selection media +0.05 mM glyphosate for about 7 to 14 days. In addition to glyphosate, several other selection agents were tested (Table 4).

[2] = tested on: HA300B (Control); experiment: Glyphosate spray in greenhouse, non-transgenic control; assay type: in vivo, sunflower; conditions: for Tolerance to glyphosate spray: greenhouse, about v6 to v10 leaf stage
Method: (§1) Transgenic R1 sunflower plants (from strain HA300B), transformed with pWRG4750, were transformed and regenerated as described in Examples 5-9 and tested in greenhouse. About 5000 R2 seeds of two independent transformants, SFB193 and SFB216, were planted. […] […] The sunflower plants were assessed for resistance to glyphosate.
(§2) In addition, the glyphosate-treated transgenic plants were scored for normal head development.

[3] = tested on: SFB193; experiment: Glyphosate spray in greenhouse, transgenic sunflower; assay type: in vivo
Method: as §1, §2

[4] = tested on: SFB216; experiment: as above; assay type: in vivo
Method: Transgenic R1 sunflower plants (from strain HA300B), transformed with pWRG4750, were transformed and regenerated as described in Examples 5-9 and tested in greenhouse. About 5000 R2 seeds of two independent transformants, SFB193 and SFB216, were planted. Some plants were sprayed with Glyphosate at V-4 and V-8 leaf stages at 0 and 32 oz/acre level. […] The sunflower plants were assessed for resistance to glyphosate.
as §2

[5] = tested on: SFB193 and SFB216; experiment: Glyphosate spray of plants from R2 seeds at V4 and V8 stages; assay type: in vivo, sunflower; conditions: 32 and 64 oz/acre; V4 and V8 stages of plant development
Method: Transgenic R1 sunflower plants (from strain HA300B), transformed with pWRG4750, were transformed and regenerated as described in Examples 5-9 and tested in greenhouse. About 5000 R2 seeds of two independent transformants, SFB193 and SFB216, were planted. Some plants were sprayed with Glyphosate at V-4 and V-8 leaf stages at 0 and 32 oz/acre level. For the other plants, glyphosate treatment rates, at V4 stage were 0-, 32-, or 64 oz./acre. The sunflower plants were assessed for resistance to glyphosate.

SMILES | GUS Positive/Total cotyledons assayed [1] | GUS Positive Shoots [1] | Normal Sunflower Heads After Treatment With Glyphosate ([2]; 32 oz./acre) | Tolerance to glyphosate spray ([2]; 32 oz./acre) | Normal Sunflower Heads After Treatment With Glyphosate ([2]; 64 oz./acre) | Tolerance to glyphosate spray ([2]; 64 oz./acre) | Normal Sunflower Heads After Treatment With Glyphosate ([2]; 96 oz./acre) | Normal Sunflower Heads After Treatment With Glyphosate ([2]; 128 oz./acre) | Normal Sunflower Heads After Treatment With Glyphosate ([3]; 32 oz./acre) | Normal Sunflower Heads After Treatment With Glyphosate ([3]; 64 oz./acre) | Normal Sunflower Heads After Treatment With Glyphosate ([3]; 96 oz./acre) | Normal Sunflower Heads After Treatment With Glyphosate ([3]; 128 oz./acre) | Normal Sunflower Heads After Treatment With Glyphosate ([4]; 32 oz./acre) | Normal Sunflower Heads After Treatment With Glyphosate ([4]; 64 oz./acre) | Normal Sunflower Heads After Treatment With Glyphosate ([4]; 96 oz./acre) | Normal Sunflower Heads After Treatment With Glyphosate ([4]; 128 oz./acre) | Vegetative tolerance to glyphosate spray [5]
O=C(O)CNCP(=O)(O)O [Glyphosate] | 63/80 | 7 | 0% | No Tolerance | 0% | No Tolerance | 0% | 0% | 56% | 79% | 50% | 25% | 70% | 32% | 14% | 0% | excellent vegetative tolerance
NC[C@H]1O[C@H](O[C@H]2[C@H](O)[C@@H](O[C@H]3O[C@H](CO)[C@@H](O)[C@H](N)[C@H]3O)[C@H](N)C[C@@H]2N)[C@H](O)[C@@H](O)[C@@H]1O [Kanamycin] | 59/64 | 16 |  |  |  |  |  |  |  |  |  |  |  |  |  |  | 
NC[C@@H]1O[C@H](O[C@H]2[C@@H](O)[C@H](O[C@@H]3[C@@H](O)[C@H](N)C[C@H](N)[C@H]3O[C@H]3O[C@H](CO)[C@@H](O)[C@H](O)[C@H]3N)O[C@@H]2CO)[C@H](N)[C@@H](O)[C@@H]1O [Paromomycin] | 15/30 | 7 |  |  |  |  |  |  |  |  |  |  |  |  |  |  | 
